These molecules were tested against T1, human ACC2 (Homo sapiens, UniProt O00763) (assay: ACC2 assay, spectrophotometric 384 well assay (NADH-linked, coupled lactate dehydrogenase/pyruvate kinase)). Details: ACC2 assay, hACC2 construct lacking 128 N-terminal amino acids, 25° C., 340 nm; read-out: IC50.
T1 construct: made in house; host or cells: insect cells (baculoviral expression system)
T1 sequence (O00763 129-2458 limits assumed): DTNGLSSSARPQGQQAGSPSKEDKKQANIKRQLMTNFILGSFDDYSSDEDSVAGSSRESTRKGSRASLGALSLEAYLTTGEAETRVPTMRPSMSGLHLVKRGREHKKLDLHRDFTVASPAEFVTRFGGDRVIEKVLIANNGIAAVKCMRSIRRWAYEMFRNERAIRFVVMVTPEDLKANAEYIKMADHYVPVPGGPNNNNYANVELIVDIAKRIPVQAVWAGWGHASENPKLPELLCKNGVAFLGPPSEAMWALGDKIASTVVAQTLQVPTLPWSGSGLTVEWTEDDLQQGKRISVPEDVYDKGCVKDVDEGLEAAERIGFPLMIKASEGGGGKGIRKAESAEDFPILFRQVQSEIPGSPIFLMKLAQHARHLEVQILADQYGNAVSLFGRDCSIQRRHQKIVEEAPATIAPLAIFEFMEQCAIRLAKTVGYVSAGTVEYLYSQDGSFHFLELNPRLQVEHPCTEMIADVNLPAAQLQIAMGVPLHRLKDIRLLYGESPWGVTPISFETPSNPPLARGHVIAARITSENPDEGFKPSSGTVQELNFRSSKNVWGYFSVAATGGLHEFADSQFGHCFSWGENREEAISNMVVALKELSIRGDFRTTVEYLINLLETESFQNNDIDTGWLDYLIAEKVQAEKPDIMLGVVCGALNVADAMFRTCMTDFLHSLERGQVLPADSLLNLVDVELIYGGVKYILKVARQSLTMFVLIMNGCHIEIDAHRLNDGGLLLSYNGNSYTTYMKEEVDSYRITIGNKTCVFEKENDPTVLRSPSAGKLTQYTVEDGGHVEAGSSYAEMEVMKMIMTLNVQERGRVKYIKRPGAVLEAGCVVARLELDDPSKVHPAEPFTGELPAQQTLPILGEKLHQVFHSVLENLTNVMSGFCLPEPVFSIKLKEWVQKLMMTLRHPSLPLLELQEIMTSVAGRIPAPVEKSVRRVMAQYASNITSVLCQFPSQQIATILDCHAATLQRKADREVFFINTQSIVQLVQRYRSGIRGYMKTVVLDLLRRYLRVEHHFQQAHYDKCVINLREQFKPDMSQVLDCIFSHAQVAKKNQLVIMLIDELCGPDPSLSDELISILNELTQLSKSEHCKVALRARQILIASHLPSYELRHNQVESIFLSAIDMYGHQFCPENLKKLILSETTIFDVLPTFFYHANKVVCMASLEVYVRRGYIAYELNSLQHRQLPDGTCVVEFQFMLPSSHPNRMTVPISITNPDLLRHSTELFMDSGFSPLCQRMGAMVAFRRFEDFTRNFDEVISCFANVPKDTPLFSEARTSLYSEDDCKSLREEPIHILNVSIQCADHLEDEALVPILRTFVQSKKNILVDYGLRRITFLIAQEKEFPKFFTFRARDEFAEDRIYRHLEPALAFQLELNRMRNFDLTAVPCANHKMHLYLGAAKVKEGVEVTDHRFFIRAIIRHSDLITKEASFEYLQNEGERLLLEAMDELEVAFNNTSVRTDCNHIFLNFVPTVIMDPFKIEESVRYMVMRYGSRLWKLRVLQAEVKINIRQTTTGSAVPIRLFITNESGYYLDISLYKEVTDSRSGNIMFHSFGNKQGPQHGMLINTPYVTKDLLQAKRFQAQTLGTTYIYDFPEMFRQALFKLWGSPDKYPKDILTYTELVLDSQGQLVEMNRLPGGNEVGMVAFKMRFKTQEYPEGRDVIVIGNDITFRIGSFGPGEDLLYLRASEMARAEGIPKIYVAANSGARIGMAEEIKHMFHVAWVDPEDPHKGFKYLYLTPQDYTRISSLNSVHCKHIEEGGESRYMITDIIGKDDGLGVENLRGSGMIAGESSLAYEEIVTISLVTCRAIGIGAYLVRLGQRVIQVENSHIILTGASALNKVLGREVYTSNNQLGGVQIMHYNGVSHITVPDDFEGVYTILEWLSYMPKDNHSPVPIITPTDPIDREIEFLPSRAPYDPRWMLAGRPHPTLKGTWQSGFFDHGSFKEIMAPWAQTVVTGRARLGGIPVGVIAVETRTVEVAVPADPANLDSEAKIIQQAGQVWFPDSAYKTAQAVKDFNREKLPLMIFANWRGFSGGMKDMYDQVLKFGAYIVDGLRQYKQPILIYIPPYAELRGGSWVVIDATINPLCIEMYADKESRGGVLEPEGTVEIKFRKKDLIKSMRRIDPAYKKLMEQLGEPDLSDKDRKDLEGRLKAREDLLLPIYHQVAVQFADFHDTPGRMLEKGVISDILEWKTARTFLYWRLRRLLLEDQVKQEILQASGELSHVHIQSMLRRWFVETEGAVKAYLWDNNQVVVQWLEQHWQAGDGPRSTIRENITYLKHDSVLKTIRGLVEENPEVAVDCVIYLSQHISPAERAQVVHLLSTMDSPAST
Format: biochemical
Method in brief: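 Human ACC2 lacking N-terminal 128 aa, baculovirus/insect-cell expressed, anion-exchange purified; 100 mM Tris pH 7.5, 10 mM citrate, 25 mM KHCO3, 1% DMSO. Started with 200 μM NADH and acetyl-CoA plus 500 μM ATP; PK/LDH-coupled A340 decrease read 15 min at 25° C. IC50 by nonlinear fit of low-control-subtracted slopes.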
In the case of `CC(=O)N[C@@H](C)c1ccc(C2CCN(c3ccnc(OCC4CCC4)c3)CC2)cc1` [Example 19.11], the IC50 is reported as 140 nM. `CC(=O)N[C@@H](C)c1ccc(C2CCN(c3ccnc(OCCC4CC4)c3)CC2)cc1` [Example 19.12] showed an IC50 of 180 nM. `CCC(C)Oc1cc(N2CCC(c3ccc([C@H](C)NC(C)=O)cc3)CC2)ccn1` (stereo partly drawn) [Example 19.13] gave an IC50 of 90 nM. Work on `COCC(C)Oc1cc(N2CCC(c3ccc([C@H](C)NC(C)=O)cc3)CC2)ccn1` (stereo partly drawn) [Example 19.14] yielded an IC50 of 400 nM. Molecule `CC(=O)N[C@@H](C)c1ccc(C2CCN(c3ccnc(OCC4(C)CC4)c3)CC2)cc1` [Example 19.15] has an IC50 of 80 nM. `CC(=O)N[C@@H](C)c1ccc(C2CCN(c3ccnc(O[C@H]4CCOC4)c3)CC2)cc1` [Example 19.16] showed an IC50 of 270 nM. `CC(=O)N[C@@H](C)c1ccc(C2CCN(c3ccnc(OC4CCOCC4)c3)CC2)cc1` [Example 19.17] gave an IC50 of 330 nM. `CC(=O)N[C@@H](C)c1ccc(C2CCN(c3ccnc(OCC4CCOC4)c3)CC2)cc1` (stereo partly drawn) [Example 19.18] was tested, and the IC50 was 340 nM. `CC(=O)N[C@@H](C)c1ccc(C2CCN(c3ccnc(OCC(F)F)c3)CC2)cc1` [Example 19.19] gave an IC50 of 110 nM. `CC(=O)N[C@@H](C)c1ccc(C2CCN(c3ccnc(O[C@@H]4CCOC4)c3)CC2)cc1` [Example 19.20] gave an IC50 of 130 nM. With `CC(=O)N[C@@H](C)c1ccc(C2CCN(c3ccnc(OCCC(C)C)c3)CC2)cc1` [Example 19.21] the IC50 was 220 nM. `CCCOc1cc(N2CCC(c3ccc([C@H](C)NC(C)=O)cc3)CC2)ccn1` [Example 19.23] showed an IC50 of 120 nM. With `CCC(CC)Oc1cc(N2CCC(c3ccc([C@H](C)NC(C)=O)cc3)CC2)ccn1` [Example 19.24] the IC50 was 240 nM. `CC(=O)N[C@@H](C)c1ccc(C2CCN(c3ccnc(OC4CC=CC4)c3)CC2)cc1` [Example 19.25] showed an IC50 of 70 nM. `CC(=O)N[C@@H](C)c1ccc(C2CCN(c3ccnc(OCC4CC4(F)F)c3)CC2)cc1` (stereo partly drawn) [Example 19.26] gave an IC50 of 150 nM. With `CC(=O)N[C@@H](C)c1ccc(C2CCN(c3ccnc(OC(C)C4CC4)c3)CC2)cc1` (stereo partly drawn) [Example 19.27] the IC50 was 410 nM. `CC(=O)N[C@@H](C)c1ccc(C2CCN(c3ccnc(OCC4(C#N)CC4)c3)CC2)cc1` [Example 19.28] was tested, and the IC50 was 230 nM. Molecule `CC(=O)N[C@@H](C)c1ccc(C2CCN(c3ccnc(OCc4ccon4)c3)CC2)cc1` [Example 19.29] has an IC50 of 920 nM. `CC(=O)N[C@@H](C)c1ccc(C2CCN(c3ccnc(OC4Cc5ccccc5C4)c3)CC2)cc1` [Example 19.30] showed an IC50 of 540 nM. `CC(=O)N[C@@H](C)c1ccc(C2CCN(c3ccnc(OCc4ccccc4F)c3)CC2)cc1` [Example 19.31] showed an IC50 of 750 nM. In the case of `CC(=O)N[C@@H](C)c1ccc(C2CCN(c3ccnc(OCc4cccc(F)c4)c3)CC2)cc1` [Example 19.32], the IC50 is reported as 270 nM. `CC(=O)N[C@@H](C)c1ccc(C2CCN(c3ccnc(OCc4ccc(F)cc4)c3)CC2)cc1` [Example 19.33] showed an IC50 of 400 nM. `CC(=O)N[C@@H](C)c1ccc(C2CCN(c3ccnc(OCc4cccnc4)c3)CC2)cc1` [Example 19.34] gave an IC50 of 520 nM. `COc1ccc(COc2cc(N3CCC(c4ccc([C@H](C)NC(C)=O)cc4)CC3)ccn2)cc1` [Example 19.35] showed an IC50 of 27400 nM. With `CC(=O)N[C@@H](C)c1ccc(C2CCN(c3ccnc(OCc4ccccn4)c3)CC2)cc1` [Example 19.37] the IC50 was 1200 nM. `CC(=O)N[C@@H](C)c1ccc(C2CCN(c3ccnc(OCc4ccncc4)c3)CC2)cc1` [Example 19.38] showed an IC50 of 1200 nM. For `CC(C)Oc1cc(N2CCC(c3ccc([C@H](C)NC(=O)C4CC4)cc3)CC2)ncn1` [Example 20.1, (S)-Cyclopropanecarboxylic acid (1-{4-[1-(6-isopropoxy-pyrimidin-4-yl)-piperidin-4-yl]-phenyl}-ethyl)-amide], the IC50 was 600 nM. `C[C@H](NC(=O)C1CC1)c1ccc(C2CCN(c3cc(OC4CCC4)ncn3)CC2)cc1` [Example 20.2] was tested, and the IC50 was 220 nM. `CC(C)Oc1cc(N2CCC(c3ccc([C@H](C)NC(=O)N(C)C)cc3)CC2)ncn1` [Example 20.3] was tested, and the IC50 was 180 nM. With `C[C@H](NC(=O)N(C)C)c1ccc(C2CCN(c3cc(OC4CCC4)ncn3)CC2)cc1` [Example 20.4] the IC50 was 190 nM. For `COc1nc(N2CCC(c3ccc([C@H](C)NC(C)=O)cc3)CC2)ncc1-c1ccccc1` [Example 21.1, (S)—N-(1-{4-[1-(4-Methoxy-5-phenyl-pyrimidin-2-yl)-piperidin-4-yl]-phenyl}-ethyl)-acetamide], the IC50 was 260 nM. Molecule `CC(=O)N[C@@H](C)c1ccc(C2CCN(c3ncc(-c4ccccc4)c(C)n3)CC2)cc1` [Example 21.2, (S)—N-(1-{4-[1-(4-Methyl-5-phenyl-pyrimidin-2-yl)-piperidin-4-yl]-phenyl}-ethyl)-acetamide] has an IC50 of 150 nM. With `CNc1nc(N2CCC(c3ccc([C@H](C)NC(C)=O)cc3)CC2)ncc1-c1ccccc1` [Example 21.3, (S)—N-(1-{4-[1-(4-Methylamino-5-phenyl-pyrimidin-2-yl)-piperidin-4-yl]-phenyl}-ethyl)-acetamide] the IC50 was 320 nM. In the case of `CC(=O)N[C@@H](C)c1ccc(C2CCN(c3ccnc(-c4ccc5c(c4)OCO5)n3)CC2)cc1` [Example 22.1, (S)—N-(1-{4-[1-(2-Benzo[1,3]dioxol-5-yl-pyrimidin-4-yl)-piperidin-4-yl]-phenyl}-ethyl)-acetamide], the IC50 is reported as 1100 nM. For `CC(=O)N[C@@H](C)c1ccc(C2CCN(c3cc(-c4ccc5c(c4)OCO5)ncn3)CC2)cc1` [Example 22.2], the IC50 was 2500 nM. `CC(=O)N[C@@H](C)c1ccc(C2CCN(c3nccc(-c4ccc5c(c4)OCO5)n3)CC2)cc1` [Example 22.3] showed an IC50 of 1000 nM. `CCOc1cccc(-c2nccc(N3CCC(c4ccc([C@H](C)NC(C)=O)cc4)CC3)n2)c1` [Example 22.4] gave an IC50 of 390 nM. In the case of `CC(=O)N[C@@H](C)c1ccc(C2CCN(c3ccnc(-c4ccc(C#N)s4)n3)CC2)cc1` [Example 22.5], the IC50 is reported as 940 nM. Molecule `CCOc1ccc(-c2nccc(N3CCC(c4ccc([C@H](C)NC(C)=O)cc4)CC3)n2)cc1` [Example 22.6] has an IC50 of 1200 nM. For `CCOc1cccc(-c2cc(N3CCC(c4ccc([C@H](C)NC(C)=O)cc4)CC3)ncn2)c1` [Example 22.7], the IC50 was 4100 nM. For `CC(=O)N[C@@H](C)c1ccc(C2CCN(c3cc(-c4ccc(C#N)s4)ncn3)CC2)cc1` [Example 22.8], the IC50 was 2900 nM. `CCOc1ccc(-c2cc(N3CCC(c4ccc([C@H](C)NC(C)=O)cc4)CC3)ncn2)cc1` [Example 22.9] gave an IC50 of 3100 nM. For `CCOc1cccc(-c2ccnc(N3CCC(c4ccc([C@H](C)NC(C)=O)cc4)CC3)n2)c1` [Example 22.10], the IC50 was 240 nM. Work on `CC(=O)N[C@@H](C)c1ccc(C2CCN(c3nccc(-c4ccc(C#N)s4)n3)CC2)cc1` [Example 22.11] yielded an IC50 of 390 nM. For `CCOc1ccc(-c2ccnc(N3CCC(c4ccc([C@H](C)NC(C)=O)cc4)CC3)n2)cc1` [Example 22.12], the IC50 was 3300 nM. For `CC(=O)N[C@@H](C)c1ccc(C2CCN(c3cc(-c4ccc5[nH]ccc5c4)ncn3)CC2)cc1` [Example 22.13], the IC50 was 440 nM. With `CC(=O)N[C@@H](C)c1ccc(C2CCN(c3ncc(-c4nc5ccccc5[nH]4)cn3)CC2)cc1` [Example 23.1, (S)—N-[1-(4-{1-[5-(1H-Benzoimidazol-2-yl)-pyrimidin-2-yl]-piperidin-4-yl}-phenyl)-ethyl]-acetamide] the IC50 was 290 nM. Work on `CCCNc1ccc(N2CCC(c3ccc([C@H](C)NC(C)=O)cc3)CC2)cc1` [Example 24.1, (S)—N-(1-{4-[1-(4-(Propylamino)phenyl)-piperidin-4-yl]-phenyl}-ethyl)-acetamide] yielded an IC50 of 1000 nM.

— US9006450B2 (Boehringer Ingelheim International GmbH, priority 2010, dated 2015)
